Data from US20230203060A1 (GENFLEET THERAPEUTICS (SHANGHAI) INC., priority 2020, published 2023).
Like-named read-outs stand apart in the source and are kept apart here.

How the values were obtained:
Format in all cases: cell-based, human
[1] = test system: KRAS G12C mutant NCI-H358 cells; assay: Cell proliferation inhibition experiment, 3D spheroid, CellTiter-Glo, NCI-H358; conditions: NCI-H358 (KRAS G12C mutant) 3D spheroid, 5 days with compound, CellTiter-Glo, read-out: H358 IC50
From the text: (§1) Raw materials and instruments: NCI-H358 purchased from ATCC; article number: CRL-5807; batch number: 70010825; A549 purchased from ATCC; article number: CCL-185; batch number: 70007820; RPMI1640 purchased from Gibco; article number: 11875-093; batch number: 2152748; F-12K purchased from Gibco; article number: 21127-022; batch number: 2185853; FBS purchased from Gibco; article number: 10099-141; batch number: 2109290CP; PS purchased from Gibco; article number: 15140-122; batch number: 2145451; Trypsin-EDTApurchased from Gibco; article number: 25200-072; batch number: 2085552; CellTiter Glo working solution purchased from Promega; article number: G9683; batch number: 398478; DMSO purchased from VWR AMRESCO; article number: 0231-500ML; batch number: 18C0656168; 384-well spheroid plate purchased from Corning; article number: 3830; batch number: 27519032; white opaque 384-well plate purchased from Corning; article number: 3570; batch number: 26819023; microplate reader purchased from PerkinElmer; model: Envision MLD2105-0020; equipment number 1050369.
(§2) NCI-H358 is a KRAS G12C mutant human non-small cell lung cancer cell line, cultured in 10% FBS RPMI-1640+1% PS culture medium; and A549 is a KRAS G12S mutant human lung adenocarcinoma cell line, cultured in 10% FBS F-12K+1% PS culture medium. Cells at logarithmic growth stage were taken, digested with trypsin-EDTA, then collected and counted. H358 was adjusted to 1.8 E4 cells/mL with 2% FBS RPMI-1640 culture medium, and A549 was adjusted to 8.9 E3 cells/mL with 2% FBS F-12K culture medium; 800 (45 μL) H358 or 400 (45 μL) A549 were inoculated respectively in a 384-well spheroid plate and cultured overnight to establish a 3D cell model. A 3.16-fold gradient concentration stock solution of 1000× compound was prepared with DMSO, and diluted 100-fold to 10× compound stock solution with 2% FBS culture medium. On the second day after cell inoculation, 5 μL of 10× compound stock solution was added to each cell culture well, with a final concentration of 1× and a DMSO content of 0.1%. DMSO was used as experimental control (control), and 2% FBS culture medium was used as blank control (blank). After 5 days of compound cell culture, 25 μL of CellTiter-Glo working solution was added to each well, mixed well at 400 rpm and incubated for 30 minutes. After standing at room temperature for 30 minutes, 40 μL of the mixed solution was transferred to a white opaque 384-well plate, and the luminescence chemiluminescence value was read with a microplate reader. The cell proliferation inhibition rate IR (%)=(RLU control -RLU compound)/(RLU control -RLU blank) x100% was calculated. The gradient dilution concentration of the compound and the corresponding cell proliferation inhibition rate were fitted by Prism 6 four-parameter method, and the IC50 value was calculated. The inhibitory activity of the compounds prepared in the above embodiments of the present disclosure on KRAS G12C mutant NCI-H358 cells was 0.0001 μM to 0.5 μM; the inhibitory activity of some compounds on KRAS G12C mutant NCI-H358 cells was 0.001 μM to 0.1 μM or 0.001 μM to 0.05 μM.

[2] = test system: KRAS G12C mutant MIA PaCa-2 cells; assay: Cell proliferation inhibition experiment, 3D spheroid, CellTiter-Glo, MIA PaCa-2; conditions: Homo sapiens, MIA PaCa-2, 120 h, 3D cell model in 384-well spheroid plate, 5 days, CellTiter-Glo; read-out: MIA-PaCa2 IC50
From the text: Raw materials and instruments: MIA PaCa-2 purchased from ATCC; article number: CRL-1420; batch number: 63143594; DMEM purchased from Gibco; article number: 11995-065; batch number: 2186878; FBS purchased from Gibco; article number: 10099-141; batch number: 2109290CP; Horse Serum purchased from Gibco; article number: 16050-122; batch number: 1818976; PS purchased from Gibco; article number: 15140-122; batch number: 2145451; Trypsin-EDTA purchased from Gibco; article number: 25200-072; batch number: 2085552; CellTiter Glo working solution purchased from Promega; article number: G9683; batch number 398478; DMSO purchased from VWR AMRESCO; article number: 0231-500ML; batch number: 18C0656168; 384-well spheroid plate purchased from Corning; article number: 3830; batch number: 27519032; white opaque 384-well plate purchased from Corning; article number: 3570; batch number: 26819023; microplate reader purchased from PerkinElmer; model: Envision MLD2105-0020; equipment number 1050369.
MIA PaCa-2 is a KRAS G12C mutant human pancreatic cancer cell line, cultured in 10% FBS+2.5% Horse Serum DMEM+1% PS culture medium; cells at logarithmic growth stage were taken, digested with trypsin-EDTA, then collected and counted, and 200 MIA PaCa-2 were inoculated in a 384-well spheroid plate, respectively, and cultured overnight to establish a 3D cell model. A 3.16-fold gradient concentration stock solution of 1000× compound was prepared with DMSO, and diluted 100-fold to 10× compound stock solution with culture medium. On the second day after cell inoculation, 10× compound stock solution was added to each cell culture well, with a final concentration of 1× and a DMSO content of 0.1%. DMSO was used as experimental control (control), and culture medium was used as blank control (blank). After 5 days of compound cell culture, 30 μL of CellTiter-Glo working solution was added to each well, mixed well and incubated for 30 minutes. After standing at room temperature for 30 minutes, 40 μL of the mixed solution was transferred to a white opaque 384-well plate, and the luminescence chemiluminescence value was read with a microplate reader. The cell proliferation inhibition rate IR (%)=(RLU control -RLU compound)/(RLU control−RLU blank)×100% was calculated. The gradient dilution concentration of the compound and the corresponding cell proliferation inhibition rate were fitted by XLFit four-parameter method, and the IC50 value was calculated. The inhibitory activity of the compounds prepared in the above embodiments of the present disclosure on KRAS G12C mutant MIA PaCa-2 cells was 0.0001 μM to 0.5 μM; the inhibitory activity of some compounds on KRAS G12C mutant MIA PaCa-2 cells was 0.001 μM to 0.1 μM or 0.001 μM to 0.05 μM.

[3] = test system: A549 cells (KRAS G12S mutant); assay: Cell proliferation inhibition experiment, 3D spheroid, CellTiter-Glo, A549; conditions: A549 (KRAS G12S mutant) 3D spheroid, 5 days with compound, CellTiter-Glo, read-out: A549 IC50
From the text: as §1, §2

| IC50 ([1]; Homo sapiens, NCI-H358, 120 h) [nM] | IC50 [2] [nM] | IC50 ([3]; Homo sapiens, A549, 120 h) [nM] | IC50 [1] [nM] | IC50 [3] [nM] | Compound |
| --- | --- | --- | --- | --- | --- |
| 44.7 | 105 | – | – | – | C=CC(=O)N1CCN2C(=O)c3c(N4C[C@](C)(O)CC4(C)C)nc(-c4c(O)cccc4F)c(F)c3OC[C@H]2C1 (single isomer, unassigned) [Z256b-2] |
| 145 | – | > 30000 | – | – | C=CC(=O)N1CCN2C(=O)c3c(N4CCN5C(=O)CC[C@H]5C4)nc(-c4c(O)cccc4F)c(Cl)c3OC[C@H]2C1 (single isomer, unassigned) [Z317a-1] |
| 37 | – | > 1000 | – | – | C=CC(=O)N1CCN2C(=O)c3c(Nc4c(C)c(Cl)nn4C(C)C)nc(-c4c(O)cccc4F)c(Cl)c3OC[C@H]2C1 [Z16, (6aR)-8-acryloyl-4-chloro-1-((3-chloro-1-isopropyl-4-methyl-1H-pyrazol-5-yl)amino)-3-(2-fluoro-6-hydroxyphenyl)-6,6a,7,8,9,10-hexahydro-12H-pyrazino[2,1-c]pyrido[3,4-f][1,4]oxazepin-12-one] |
| 176 | – | > 30000 | – | – | C=CC(=O)N1CCN2C(=O)c3c(N4CCC(N(C)C)CC4)nc(-c4c(O)cccc4F)c(Cl)c3OC[C@H]2C1 [Z31, (6aR)-8-acryloyl-4-chloro-1-(4-(dimethylamino)piperidin-1-yl)-3-(2-fluoro-6-hydroxyphenyl)-6,6a,7,8,9,10-hexahydro-12H-pyrazino[2,1-c]pyrido[3,4-f][1,4]oxazepin-12-one] |
| – | – | – | 460 | > 20000 | C=CC(=O)N1CCN2C(=O)c3c(N[C@H]4[C@@H]5CN(C)C[C@@H]54)nc(-c4c(O)cccc4F)c(Cl)c3OC[C@H]2C1 [Z46, (6aR)-8-acryloyl-4-chloro-3-(2-fluoro-6-hydroxyphenyl)-1-(((1R,5S,6s)-3-methyl-3-azabicyclo[3.1.0]hexan-6-yl)amino)-6,6a,7,8,9,10-hexahydro-12H-pyrazino[2,1-c]pyrido[3,4-f][1,4]oxazepin-12-one] |
| 324 | – | > 30000 | – | – | C=CC(=O)N1CCN2C(=O)c3c(-c4cn(C)nc4C)nc(-c4c(O)cccc4F)c(Cl)c3OC[C@H]2C1 [Z74, (6aR)-8-acryloyl-4-chloro-1-(1,3-dimethyl-1H-pyrazol-4-yl)-3-(2-fluoro-6-hydroxyphenyl)-6,6a,7,8,9,10-hexahydro-12H-pyrazino[2,1-c]pyrido[3,4-f][1,4]oxazepin-12-one] |

More lines, now with the values behind:

| Compound | IC50 ([1]; Homo sapiens, NCI-H358, 120 h) [nM] | IC50 [2] [nM] | IC50 ([3]; Homo sapiens, A549, 120 h) [nM] | IC50 [1] [nM] | IC50 [3] [nM] |
| --- | --- | --- | --- | --- | --- |
| C=CC(=O)N1CCN2C(=O)c3c(N4CCN5C(=O)CC[C@@H]5C4)nc(-c4c(O)cccc4F)c(Cl)c3OC[C@H]2C1 (single isomer, unassigned) [Z317a-2] | 108 | – | > 30000 | – | – |
| C=CC(=O)N1CCN2C(=O)c3c(Nc4c(C)ccnc4C(C)C)nc(-c4ccccc4F)c(Cl)c3OC[C@H]2C1 [Z8, (R)-8-acryloyl-4-chloro-3-(2-fluorophenyl)-1-((2-isopropyl-4-methylpyridin-3-yl)amino)-6,6a,7,8,9,10-hexahydro-12H-pyrazino[2,1-c]pyrido[3,4-f][1,4]oxazepin-12-one] | 51 | 232 | 5090 | – | – |
| C=CC(=O)N1CCN2C(=O)c3c(Nc4c(C)ccnc4C(C)C)nc(-c4c(O)cccc4F)c(F)c3OC[C@H]2C1 [Z9, (6aR)-8-acryloyl-4-fluoro-3-(2-fluoro-6-hydroxyphenyl)-1-((2-isopropyl-4-methylpyridin-3-yl)amino)-6,6a,7,8,9,10-hexahydro-12H-pyrazino[2,1-c]pyrido[3,4-f][1,4]oxazepin-12-one] | 23 | 95 | 11300 | – | – |
| C=CC(=O)N1CCN2C(=O)c3c(OC[C@H]4CCCN4C)nc(-c4c(O)cccc4F)c(Cl)c3OC[C@H]2C1 [Z13, (6aR)-8-acryloyl-4-chloro-3-(2-fluoro-6-hydroxyphenyl)-1-(((R)-1-methylpyrrolidin-2-yl)methoxy)-6,6a,7,8,9,10-hexahydro-12H-pyrazino[2,1-c]pyrido[3,4-f][1,4]oxazepin-12-one] | 51 | – | > 5000 | – | – |
| C=CC(=O)N1CCN2C(=O)c3c(N4CCS(=O)(=O)CC4)nc(-c4c(O)cccc4F)c(Cl)c3OC[C@H]2C1 [Z26, (6aR)-8-acryloyl-4-chloro-1-(1,1-dioxidothiomorpholino)-3-(2-fluoro-6-hydroxyphenyl)-6,6 a,7,8,9,10-hexahydro-12H-pyrazino[2,1-c]pyrido[3,4-f][1,4]oxazepin-12-one] | 479 | – | > 30000 | – | – |
| C=CC(=O)N1CCN2C(=O)c3c(NC(=O)CC(C)(C)C)nc(-c4c(O)cccc4F)c(Cl)c3OC[C@H]2C1 [Z33, N-((6aR)-8-acryloyl-4-chloro-3-(2-fluoro-6-hydroxyphenyl)-12-oxo-6,6a,7,8,9,10-hexahydro-12H-pyrazino[2,1-c]pyrido[3,4-f][1,4]oxazepin-1-yl)-3,3-dimethylbutanamide] | 113 | – | > 30000 | – | – |
| C=CC(=O)N1CCN2C(=O)c3c(N4C[C@@H](C)O[C@@H](C)C4)nc(-c4c(O)cccc4F)c(Cl)c3OC[C@H]2C1 [Z247, (6aR)-8-acryloyl-1-((2S,6R)-2,6-dimethylmorpholino)-4-chloro-3-(2-fluoro-6-hydroxyphenyl)-6,6a,7,8,9,10-hexahydro-12H-pyrazino[2,1-c]pyrido[3,4-f][1,4]oxazepin-12-one] | 41 | 47 | – | – | – |
